Laboratory results taken from BindingDB's records for patent US20260049084 (Gossamer Bio Services, 2026).

Columns and labels:
[1] = target: T1, Ectonucleotide pyrophosphatase/phosphodiesterase family member 1 (Homo sapiens, UniProt P22413); assay: ENPP1 cGAMP Biochemical Assay
T1 sequence (P22413 whole entry): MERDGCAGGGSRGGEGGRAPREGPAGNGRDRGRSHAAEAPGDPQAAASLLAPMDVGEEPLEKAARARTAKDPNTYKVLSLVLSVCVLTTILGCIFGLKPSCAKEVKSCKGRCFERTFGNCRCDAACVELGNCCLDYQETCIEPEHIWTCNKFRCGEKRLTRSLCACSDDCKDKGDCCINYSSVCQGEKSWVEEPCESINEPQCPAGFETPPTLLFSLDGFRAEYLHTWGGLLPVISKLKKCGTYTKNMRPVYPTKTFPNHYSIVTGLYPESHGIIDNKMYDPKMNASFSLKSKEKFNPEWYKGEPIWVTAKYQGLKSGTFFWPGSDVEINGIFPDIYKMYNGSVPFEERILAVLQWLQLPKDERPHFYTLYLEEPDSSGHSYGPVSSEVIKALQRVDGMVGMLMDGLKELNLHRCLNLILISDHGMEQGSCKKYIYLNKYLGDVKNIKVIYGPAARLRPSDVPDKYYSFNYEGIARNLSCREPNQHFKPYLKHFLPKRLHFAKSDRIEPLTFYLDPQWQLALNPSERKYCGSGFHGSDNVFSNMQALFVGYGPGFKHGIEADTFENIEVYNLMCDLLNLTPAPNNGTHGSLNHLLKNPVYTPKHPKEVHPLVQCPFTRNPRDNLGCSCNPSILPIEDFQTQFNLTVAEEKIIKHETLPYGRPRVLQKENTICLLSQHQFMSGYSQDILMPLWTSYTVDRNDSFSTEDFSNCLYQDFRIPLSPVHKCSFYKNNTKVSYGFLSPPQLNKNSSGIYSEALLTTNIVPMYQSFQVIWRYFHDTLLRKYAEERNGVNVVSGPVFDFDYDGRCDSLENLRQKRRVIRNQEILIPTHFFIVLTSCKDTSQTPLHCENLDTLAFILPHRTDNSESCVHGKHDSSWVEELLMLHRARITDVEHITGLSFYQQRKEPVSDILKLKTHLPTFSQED
Experimental: Compounds were added to 384 well Proxiplate (PerkinElmer, Waltham MA) at 100 nl/well from DMSO stocks using Echo (Labcyte, San Jose CA). Recombinant human ENPP1 protein (R&D Systems, Minneapolis MN) was prepared in assay buffer (50 mM Tris pH7.5, 1 mM TCEP pH7.0, 2 mM MgCl2 and 0.005% Tween20) and added at 10 μl/well. The plate was sealed, centrifuged at 1000 rpm for 1 minute and incubated at room temperature for 30 minutes before 5 μl substrate 2′3′-cGAMP (R&D Systems, Minneapolis MN) in assay buffer was added to each well to a final concentration of 0.5 nM ENPP1 and 1000 nM 2′3′-cGAMP. The plate was sealed and centrifuged at 1000 rpm for 1 minute again. After incubation at 25° C. for 60 minutes, Terbium labelled AMP/GMP antibody and AMP/GMP HiLyte647 Tracer (BellBrook Labs, Fitchburg WI) in detection buffer (50 mM Tris pH7.5, 20 mM EDTA and 0.1% Prionex) were added to the reaction mixture to a final concentration of 2 nM (5 μl/well). The assay plate was incubated at room temperature for 120 minutes. TR-FRET signal was detected using Envision (PerkinElmer, Waltham MA).

[2] = target: T2, Ectonucleotide pyrophosphatase/phosphodiesterase family member 3 (Homo sapiens, UniProt O14638); assay: ENPP3 cGAMP Biochemical Assay
T2 sequence (O14638 whole entry): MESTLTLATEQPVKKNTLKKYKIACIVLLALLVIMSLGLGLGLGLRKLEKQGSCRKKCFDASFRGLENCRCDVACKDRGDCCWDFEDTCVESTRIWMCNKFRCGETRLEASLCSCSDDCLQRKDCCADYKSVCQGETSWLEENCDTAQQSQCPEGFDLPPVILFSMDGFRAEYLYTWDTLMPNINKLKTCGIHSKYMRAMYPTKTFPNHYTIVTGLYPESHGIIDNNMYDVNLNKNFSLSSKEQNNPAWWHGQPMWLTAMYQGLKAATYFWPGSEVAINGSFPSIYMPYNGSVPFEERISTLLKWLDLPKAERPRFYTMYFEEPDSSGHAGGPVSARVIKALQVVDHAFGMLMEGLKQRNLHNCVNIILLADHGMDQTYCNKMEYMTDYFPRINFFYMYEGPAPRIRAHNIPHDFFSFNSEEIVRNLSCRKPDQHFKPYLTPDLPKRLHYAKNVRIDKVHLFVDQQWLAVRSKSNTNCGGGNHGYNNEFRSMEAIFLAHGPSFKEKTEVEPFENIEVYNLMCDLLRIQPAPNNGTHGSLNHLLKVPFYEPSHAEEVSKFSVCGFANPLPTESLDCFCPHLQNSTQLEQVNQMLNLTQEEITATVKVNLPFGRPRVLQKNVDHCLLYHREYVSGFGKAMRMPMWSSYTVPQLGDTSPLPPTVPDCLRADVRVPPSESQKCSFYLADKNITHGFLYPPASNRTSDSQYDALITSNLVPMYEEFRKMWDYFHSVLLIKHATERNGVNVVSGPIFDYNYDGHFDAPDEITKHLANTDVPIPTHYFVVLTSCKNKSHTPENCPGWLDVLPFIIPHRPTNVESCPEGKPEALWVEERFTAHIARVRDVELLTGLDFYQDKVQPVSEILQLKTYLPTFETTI
Experimental: Compounds were added to 384 well Proxiplate (PerkinElmer, Waltham MA) at 100 nl/well from DMSO stocks using Echo (Labcyte, San Jose CA). Recombinant human ENPP3 protein (Acro Biosystems, Newwark DE) was prepared in assay buffer (50 mM Tris pH7.5, 1 mM TCEP pH7.0, 2 mM MgCl2, 2 mM CaCl2), 2 mM ZnCl2 and 0.005% Tween20) and added at 2 μl/well. […] The plate was sealed and centrifuged at 1000 rpm for 1 minute again. […] The assay plate was incubated at room temperature for 120 minutes. TR-FRET signal was detected using Envision (PerkinElmer, Waltham MA).

[3] = target: Carbonic anhydrase 1 (Homo sapiens, UniProt P00915); assay: Carbonic Anhydrase 1 Enzymatic Assay
Sequence of Carbonic anhydrase 1 (P00915 whole entry): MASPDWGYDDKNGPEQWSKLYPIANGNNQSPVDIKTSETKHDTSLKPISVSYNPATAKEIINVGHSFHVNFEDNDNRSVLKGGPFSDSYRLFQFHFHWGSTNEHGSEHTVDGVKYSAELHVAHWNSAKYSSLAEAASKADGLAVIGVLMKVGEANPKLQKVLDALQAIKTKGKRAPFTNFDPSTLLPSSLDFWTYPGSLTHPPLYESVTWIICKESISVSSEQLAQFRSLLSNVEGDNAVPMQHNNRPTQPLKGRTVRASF
Experimental: (§1) Test compound and/or vehicle was preincubated with carbonic anhydrase I enzyme (15 μg/ml) isolated from human erythrocyte in reaction buffer (50 mM MOPS solution pH 7.5) for 15 minutes at 25° C. The reaction was initiated by addition of 500 μM 4-nitrophenyl acetate and incubated for 30 minutes. The plate was read on a spectrophotometer (Absorbance: 400 nm)

[4] = target: Carbonic anhydrase 2 (Homo sapiens, UniProt P00918); assay: Carbonic Anhydrase 2 Enzymatic Assay
Experimental: as §1, with “II” for “I”, “nm).” for “nm)”

| SMILES | IC50 [1] [µM] | IC50 [2] [µM] | IC50 [3] [µM] | IC50 [4] [µM] |
| --- | --- | --- | --- | --- |
| CCn1nc(Cl)c2c(NCC3CCN(S(=N)(=O)CCNC(C)=O)CC3)ccnc21 (centres undefined) [US20260049084, Compound 14K] | < 0.01 | > 1 | – | – |
| CN=[S@](N)(=O)N1CCC(CNc2ccnc3c2c(Cl)nn3CC#N)CC1 [US20260049084, Compound 15G] | – | – | > 1 | > 1 |
